Values of other authors in patent US7279325B2, “Method for identifying antagonist compounds of the estrogen-related receptor 3 (ERR3) by using the x-ray structural coordinates of the ligand binding domain” (priority 2002, dated 2007).

Molecular target: T1, ERR3 (Homo sapiens, UniProt P62508)
T1 sequence (P62508 1-458): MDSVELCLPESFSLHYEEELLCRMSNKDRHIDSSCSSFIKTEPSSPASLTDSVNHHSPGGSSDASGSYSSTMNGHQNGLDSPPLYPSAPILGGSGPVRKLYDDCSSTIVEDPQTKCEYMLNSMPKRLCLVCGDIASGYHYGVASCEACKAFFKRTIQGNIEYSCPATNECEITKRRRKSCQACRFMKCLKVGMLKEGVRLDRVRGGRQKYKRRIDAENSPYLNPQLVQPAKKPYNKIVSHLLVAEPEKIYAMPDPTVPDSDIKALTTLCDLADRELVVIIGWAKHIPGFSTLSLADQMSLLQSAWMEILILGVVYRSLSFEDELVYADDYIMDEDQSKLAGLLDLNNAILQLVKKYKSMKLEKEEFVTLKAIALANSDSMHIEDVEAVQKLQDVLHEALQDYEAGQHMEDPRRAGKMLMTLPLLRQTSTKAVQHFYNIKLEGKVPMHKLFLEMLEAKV
Conditions: Coward et al. (2001); cited from earlier work

4-hydroxytamoxifen [4-OHT]
affinities of binding to ERR3: submicromolar
